Consider 13 compounds from patent EP2719696A1, “NOVEL KINASE INHIBITORS” (Asinex Limited, priority 2011, dated 2012).

As usually defined, the IC50 is the concentration that inhibits the measured activity by half. Higher therefore signals lower potency.

Each structure is given as a SMILES string. Read-outs that look alike come from different tables or passages of the source. Bounds are passed on as bounds.

In one data set the target is PDGFR-α (Homo sapiens, UniProt P16234). In words: Kinase inhibition assay (ELISA). It counts as biochemical. Particulars: 1 µM ATP. On the procedure: (§1) To determine the interaction of our compounds with tyrosine kinases: PDGFR-α, cKIT, PDGFR-β, VEGFR-2 we used enzyme-linked immunosorbent assay (ELISA).
(§2) Determination plates preparation: The plates are processed by neutravidine for 2 h at 30°C. After washing thrice with TBS/0.1% Tween-20 and blocking with 1% BSA/TBS for 1 h at room temperature (RT) 96-well microtiter plates were washed thrice with TBS/0.1% Tween-20 again.
(§3) Reaction: After addition test compounds (in DMSO, DMSO final concentration - 5%) to reaction buffer (20 mM HEPES, pH 7.5, 15 mM MgCl2, 3 mM MnCl2, 2 mM DTT, 0.2 mM Na3VO4, 0.005% Triton X-100; PDGFR-α,: 0.05 µg/ml, 0.5 µg/ml Poly(G,T)-biotin; PDGFR-β: 0.05 µg/ml, 1 µg/ml Poly(G,T)-biotin; c-KIT: 0.03 µg/ml, 0.15 µg/ml Poly(G,T)-biotin; VEGFR-2: 0.07 µg/ml, 0.05 µg/ml Poly(G,T)-biotin) and preincubation of reaction for 10 min at RT and intensive agitation, ATP solution (PDGFR-α, - 1 µM, PDGFR-β - 0.5 µM, c-KIT - 60 µM, VEGFR-2: - 1.5 µM ATP in reaction buffer per well) was added to initiate reaction. Following incubation of mixture for 1 h at 30°C and intensive agitation the reaction was stopped by stop solution (20 mM HEPES, pH 7.5, 50 mM EDTA).
(§4) Kinase activity determination: The reaction mixture was transferred to determination plate. After mix incubation for 1 h at RT and intensive agitation the plates were washed thrice with TBS/0.1% Tween-20. Following mouse monoclonal 0.05 µg/ml Anti-p-Tyr (PY20) HRP antibodies (Santa Cruz Biotechnology) in PBS/BSA were added for 1 h at RT and intensive agitation. After washing, antibody binding was detected by tetramethylbenzidine (TMB) color development (Sigma). Measurement of A450 nm was carried out after addition of H2SO4
A general note: In an ELISA, binding on a coated surface is turned into a signal by an enzyme label.

The target of the next data set is VEGFR-2 (Homo sapiens, UniProt P35968). In words: Kinase inhibition assay (ELISA). Type of data set: biochemical. Particulars: 1.5 µM ATP. On the procedure: as §1, §2, §3, §4
A further data set deals with cKIT (Homo sapiens, UniProt P10721). As to the kind of experiment: Kinase inhibition assay (ELISA). Conditions: 60 µM ATP. Type of data set: biochemical. On the procedure: as §1, §2, §3, §4
A further data set relates to A172. In words: MTT proliferation / cytotoxicity assay. Type of data set: cell-based, human. Particulars: Homo sapiens, A 172, 72 h, glioblastoma cell line. On the procedure:
(§5) Cell culture. The human cancer cell lines A172, A375, A2780 and U251 were purchased from the American Type Culture Collection. All cells were routinely maintained in DMEM containing 10% fetal bovine serum (Omega Scientific), at 37°C in 5% C02.
(§6) Proliferation assay Inhibition of cell A172, A375, A2780 and U251 cell proliferation was assessed by a MTT assay (MTT = Thiazolyl Blue Tetrazolium Bromide) . Cells were inoculated into 96-well microtiter plates containing 0.5% fetal calf serum and incubated at 37°C, 5% CO2, 95% air, and 100% relative humidity for 24 h prior to addition of testing compounds. Following compounds addition, the plates were incubated for an additional 72 h before processing to measure the cell population. Each compound was tested at eight different concentrations in triplicate, as was a control sample. Growth inhibition of 50% (IC50) is calculated by analysis of the data in Prizm3.4 software.
(§7) Table 8 lists IC50 values for inhibition of growth of several cancer cell lines, including the glioblastoma cell lines A172 and U251, measured in a MTT cytotoxicity assay. Table 8. Data of cytotoxicity assay (MTT) for several cancer cell lines, IC50 [µM]

The test system of the next data set is A2780. In words: MTT proliferation / cytotoxicity assay. Conditions: Homo sapiens, A2780, 72 h. Type of data set: cell-based, human. On the procedure:
as §5, §6, §7

A short description of data set [1]: In vivo PK study, determination of brain-to-plasma ratio. Particulars: mouse, SHK mice, PO dosing 5mg/kg, 20% water solution of HPβCD, read-out: brain-to-plasma concentration ratio. On the procedure: Male SHK mice (22-25 g) were dosed with 5 mg/kg of related compounds as a single injection via oral gavage (formulated in 20% water solution of HPβCD). Blood samples and whole brains were collected from three mice at each of eight collection time points of 0.05, 0.25, 0.5, 1, 2, 4, 8 and 24 h post dose. Plasma was collected from blood samples, and whole brain samples were homogenized in three volumes of water. Both tissues were analyzed for concentrations of related compounds by liquid chromatography-mass spectrometry (LC-MS/MS). Table 9. brain-to-plasma concentration ratios in SHK mice after PO dosing 5mg/kg for several selected examples

The subject of the next data set is A375. As to the kind of experiment: MTT proliferation / cytotoxicity assay. It counts as cell-based, human. Conditions: Homo sapiens, A-375, 72 h. On the procedure: as §5, §6, §7
Another data set concerns U251. As to the kind of experiment: MTT proliferation / cytotoxicity assay. Particulars: Homo sapiens, U-251, 72 h, glioblastoma cell line. Type of data set: cell-based, human. On the procedure:
as §5, §6, §7

Chain of cKIT (P10721 26-976): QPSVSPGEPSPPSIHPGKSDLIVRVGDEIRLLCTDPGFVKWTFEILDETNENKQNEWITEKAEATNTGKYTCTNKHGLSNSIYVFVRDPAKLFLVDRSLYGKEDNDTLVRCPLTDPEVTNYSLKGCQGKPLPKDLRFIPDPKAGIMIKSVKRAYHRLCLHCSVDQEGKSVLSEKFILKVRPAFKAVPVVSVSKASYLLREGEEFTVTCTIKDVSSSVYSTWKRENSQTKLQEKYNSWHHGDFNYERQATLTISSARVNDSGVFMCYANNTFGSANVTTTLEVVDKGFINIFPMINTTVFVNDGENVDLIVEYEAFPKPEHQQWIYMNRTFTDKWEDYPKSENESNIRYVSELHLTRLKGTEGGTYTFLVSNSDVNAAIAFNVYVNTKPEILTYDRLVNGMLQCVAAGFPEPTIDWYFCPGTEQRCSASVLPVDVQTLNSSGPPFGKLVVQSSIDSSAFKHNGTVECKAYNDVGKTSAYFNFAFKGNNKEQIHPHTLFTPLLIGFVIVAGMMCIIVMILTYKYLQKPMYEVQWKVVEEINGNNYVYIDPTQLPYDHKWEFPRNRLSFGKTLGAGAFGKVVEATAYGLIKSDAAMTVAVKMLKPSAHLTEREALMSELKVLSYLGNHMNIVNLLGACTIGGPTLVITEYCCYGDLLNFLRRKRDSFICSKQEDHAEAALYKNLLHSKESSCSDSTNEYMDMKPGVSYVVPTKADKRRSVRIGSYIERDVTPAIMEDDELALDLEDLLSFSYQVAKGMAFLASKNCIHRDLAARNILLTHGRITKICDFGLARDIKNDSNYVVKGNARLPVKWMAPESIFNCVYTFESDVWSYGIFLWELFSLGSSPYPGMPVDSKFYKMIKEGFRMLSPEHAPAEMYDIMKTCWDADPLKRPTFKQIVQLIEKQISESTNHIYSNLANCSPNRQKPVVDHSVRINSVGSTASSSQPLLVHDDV
Chain of PDGFR-α (P16234 24-1089, species assumed): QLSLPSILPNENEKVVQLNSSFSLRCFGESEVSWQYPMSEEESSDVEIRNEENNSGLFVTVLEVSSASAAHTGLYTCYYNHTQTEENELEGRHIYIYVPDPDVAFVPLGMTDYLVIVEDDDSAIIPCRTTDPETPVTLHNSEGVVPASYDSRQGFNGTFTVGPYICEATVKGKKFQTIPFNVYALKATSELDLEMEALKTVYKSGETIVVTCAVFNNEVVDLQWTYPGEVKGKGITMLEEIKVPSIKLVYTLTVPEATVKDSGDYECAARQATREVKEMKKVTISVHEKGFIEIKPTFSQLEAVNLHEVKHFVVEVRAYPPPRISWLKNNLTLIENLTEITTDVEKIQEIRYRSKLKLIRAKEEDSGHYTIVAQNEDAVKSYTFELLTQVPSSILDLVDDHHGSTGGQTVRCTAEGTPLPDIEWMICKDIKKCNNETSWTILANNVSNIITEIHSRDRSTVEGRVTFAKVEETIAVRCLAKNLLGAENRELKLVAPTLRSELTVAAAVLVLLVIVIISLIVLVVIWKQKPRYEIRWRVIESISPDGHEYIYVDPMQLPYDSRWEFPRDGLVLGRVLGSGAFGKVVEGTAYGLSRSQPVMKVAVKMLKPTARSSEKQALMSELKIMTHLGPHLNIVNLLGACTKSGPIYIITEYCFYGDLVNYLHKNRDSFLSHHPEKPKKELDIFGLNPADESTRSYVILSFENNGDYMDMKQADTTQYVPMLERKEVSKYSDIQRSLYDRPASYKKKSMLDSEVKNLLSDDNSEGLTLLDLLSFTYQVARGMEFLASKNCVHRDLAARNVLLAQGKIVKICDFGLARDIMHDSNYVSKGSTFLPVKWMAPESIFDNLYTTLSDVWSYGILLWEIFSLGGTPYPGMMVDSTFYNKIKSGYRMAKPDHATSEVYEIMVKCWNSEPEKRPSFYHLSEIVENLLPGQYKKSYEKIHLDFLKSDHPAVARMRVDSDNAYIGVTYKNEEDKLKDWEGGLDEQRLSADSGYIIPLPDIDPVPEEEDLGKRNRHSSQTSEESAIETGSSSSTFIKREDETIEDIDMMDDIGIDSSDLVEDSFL
Chain of VEGFR-2 (P35968 20-1356, species assumed): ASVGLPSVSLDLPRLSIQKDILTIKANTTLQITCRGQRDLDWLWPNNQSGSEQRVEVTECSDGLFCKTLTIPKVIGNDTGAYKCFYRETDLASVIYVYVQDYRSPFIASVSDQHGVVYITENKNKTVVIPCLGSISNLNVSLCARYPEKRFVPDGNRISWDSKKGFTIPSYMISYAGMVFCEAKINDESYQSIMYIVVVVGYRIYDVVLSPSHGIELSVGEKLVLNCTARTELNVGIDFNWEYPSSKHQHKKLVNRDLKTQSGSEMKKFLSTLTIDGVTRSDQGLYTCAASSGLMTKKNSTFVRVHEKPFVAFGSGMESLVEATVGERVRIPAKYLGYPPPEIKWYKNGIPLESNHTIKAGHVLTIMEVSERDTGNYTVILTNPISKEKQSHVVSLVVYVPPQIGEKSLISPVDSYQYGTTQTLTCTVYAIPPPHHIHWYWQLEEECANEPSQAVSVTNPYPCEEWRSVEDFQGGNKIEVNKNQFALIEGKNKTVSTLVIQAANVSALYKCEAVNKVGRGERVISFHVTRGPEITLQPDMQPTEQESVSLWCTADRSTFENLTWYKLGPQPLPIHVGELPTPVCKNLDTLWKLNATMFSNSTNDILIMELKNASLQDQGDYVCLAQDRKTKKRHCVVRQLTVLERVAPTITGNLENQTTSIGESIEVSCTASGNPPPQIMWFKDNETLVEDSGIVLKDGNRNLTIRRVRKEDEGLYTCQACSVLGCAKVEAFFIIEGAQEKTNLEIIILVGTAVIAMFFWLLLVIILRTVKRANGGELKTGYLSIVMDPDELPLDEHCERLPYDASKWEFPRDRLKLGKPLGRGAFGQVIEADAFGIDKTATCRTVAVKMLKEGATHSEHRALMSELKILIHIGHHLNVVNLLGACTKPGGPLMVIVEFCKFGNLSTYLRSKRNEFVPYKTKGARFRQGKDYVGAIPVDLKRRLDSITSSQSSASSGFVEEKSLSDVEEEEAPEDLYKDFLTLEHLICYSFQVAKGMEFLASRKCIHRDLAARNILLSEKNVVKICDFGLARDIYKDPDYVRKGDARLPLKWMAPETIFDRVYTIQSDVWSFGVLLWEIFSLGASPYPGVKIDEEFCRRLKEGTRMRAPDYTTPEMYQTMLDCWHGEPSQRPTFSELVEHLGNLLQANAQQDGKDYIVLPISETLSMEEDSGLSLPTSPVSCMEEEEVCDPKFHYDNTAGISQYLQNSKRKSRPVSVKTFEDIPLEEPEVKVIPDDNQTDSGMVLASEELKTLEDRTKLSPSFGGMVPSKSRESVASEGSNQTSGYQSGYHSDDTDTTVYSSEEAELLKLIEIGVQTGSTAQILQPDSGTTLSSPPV

As for `COC(=O)C1CC(Cc2ccnc(Nc3ncc(-c4ccccc4)s3)c2)CC1N` (stereo not drawn) [Example 023, 2-Amino-4-[2-(5-phenyl-thiazol-2-ylamino)-pyridin-4-ylmethyl]-cyclopentanecar-boxylic acid methyl ester], the IC50 was below 10 nM at PDGFR-α; above 10 nM against VEGFR-2; below 10 nM against cKIT; above 1 µM in the data set with A172; above 1 µM in the data set with A2780. Moreover, the Kp in data set [1] (brain) was 0.78.
As to `Fc1ccc(-c2cnc(Nc3cccc(CC4CNCCOC4)n3)s2)cc1` (stereo not drawn) [Example 013, [5-(4-Fluoro-phenyl)-thiazol-2-yl]-(6-[1,4]oxazepan-6-ylmethyl-pyridin-2-yl)-amine], the IC50 was above 100 nM against PDGFR-α; above 1000 nM at VEGFR-2; above 10 nM against cKIT; above 1 µM with A172; below 1 µM in the data set on A2780; at most 1 µM in the data set on A375. Further, the half-inhibitory concentration (IC50) with U251 was above 1 µM. Moreover, the Kp in data set [1] (male, brain/plasma) worked out at 0.59.
Take `OCCN1CCC(c2ccnc(Nc3ncc(-c4ccc(F)cc4)s3)c2)CC1` [Example 035]: the IC50 against PDGFR-α was below 10 nM; on VEGFR-2, below 10 nM; against cKIT, below 10 nM; in the data set with A172 it was above 1 µM; in the data set with A2780, above 1 µM; in the data set with A375, above 1 µM. The compound also had an IC50 with U251 above 1 µM. Further, the Kp in data set [1] (brain) worked out at 18.5.
For `OCCN1CCC(Cc2ccnc(Nc3ncc(-c4ccc(F)cc4)s3)c2)CC1` [Example 003, 2-(4-{2-[5-(4-Fluoro-phenyl)-thiazol-2-ylamino]-pyridin-4-ylmethyl}-piperidin-1-yl)-ethanol], the half-inhibitory concentration (IC50) is below 10 nM against PDGFR-α; above 10 nM against VEGFR-2; above 10 nM against cKIT; at most 1 µM with A172; above 1 µM in the data set with A2780; above 1 µM with A375. The compound also registered an IC50 in the data set on U251 above 10 µM. Further, in data set [1] (male, brain/plasma), the Kp is 3.66.
As to `Fc1ccc(-c2cnc(Nc3cc(CC4CCCC5CNCC54)ccn3)s2)cc1` (stereo not drawn) [Example 017, [5-(4-Fluoro-phenyl)-thiazol-2-yl]-[4-(octahydro-isoindol-4-ylmethyl)-pyridin-2-yl]-amine], the IC50 at PDGFR-α was below 10 nM; against VEGFR-2 it was above 10 nM; against cKIT, below 10 nM; with A172, above 1 µM; in the data set on A2780, below 1 µM. Further, the Kp in data set [1] (male, brain/plasma) came out at 0.28.
On to `Fc1ccc(-c2cnc(Nc3cc(CC4CNCCOC4)ccn3)s2)cc1` (stereo not drawn) [Example 009, [5-(4-Fluoro-phenyl)-thiazol-2-yl]-(4-[1,4]oxazepan-6-ylmethyl-pyridin-2-yl)-amine], for which the IC50 at PDGFR-α is below 10 nM; on VEGFR-2 it was above 10 nM; against cKIT, below 10 nM; in the data set on A172 it was above 10 µM; in the data set with A2780, above 1 µM; in the data set on A375 it was above 1 µM. Also, in the data set on U251, the IC50 is above 10 µM. Besides, the Kp in data set [1] (male, brain/plasma) amounted to 10.3.
For the compound `Cc1nc(Nc2ncc(-c3ccccc3)s2)cc(C2CCN(CCO)CC2)n1` [Example 032, 2-{4-[2-Methyl-6-(5-phenyl-thiazol-2-ylamino)-pyrimidin-4-yl]-piperidin-1-yl}-ethanol], the IC50 on PDGFR-α is below 10 nM; at VEGFR-2 it was above 10 nM; against cKIT, above 10 nM; in the data set with A172 it was above 1 µM; with A2780, at most 1 µM; in the data set with U251, above 10 µM. Also, in data set [1] (male, brain/plasma), the Kp came out at 0.81.
Consider `OCCN1CCOCC(Cc2ccnc(Nc3ncc(-c4ccc(F)cc4)s3)c2)C1` (stereo not drawn) [Example 011, 2-(6-{2-[5-(4-Fluoro-phenyl)-thiazol-2-ylamino]-pyridin-4-ylmethyl}-[1,4]oxazepan-4-yl)-ethanol], for which the IC50 is below 10 nM against PDGFR-α; above 10 nM on VEGFR-2; above 10 nM against cKIT; above 1 µM with A172; above 1 µM in the data set on A2780; above 1 µM in the data set with A375. Moreover, in the data set with U251, the IC50 is above 10 µM. Besides, the Kp in data set [1] (male, brain/plasma) was 12.7.
Take `OCCN1CCC(c2ccnc(Nc3ncc(CC(F)(F)F)s3)c2)CC1` [Example 040, 2-{2'-[5-(2,2,2-Trifluoro-ethyl)-thiazol-2-ylamino]-3,4,5,6-tetrahydro-2H-[4,4']bipyridinyl-1-yl}-ethanol]: the IC50 was above 100 nM at PDGFR-α; above 100 nM against VEGFR-2; above 100 nM against cKIT; at most 1 µM in the data set with A172; above 10 µM with A2780; above 1 µM with A375. Moreover, in the data set with U251, the IC50 is above 10 µM. Besides, the Kp in data set [1] (male, brain/plasma) was 1.38.
For `Fc1ccc(-c2cnc(Nc3cc(CC4CNCCNC4)ccn3)s2)cc1` [Example 019, (4-[1,4]Diazepan-6-ylmethyl-pyridin-2-yl)-[5-(4-fluoro-phenyl)-thiazol-2-yl]-amine], the IC50 on PDGFR-α is below 10 nM; against VEGFR-2, above 10 nM; on cKIT it was below 10 nM; with A172, above 10 µM; in the data set on A2780 it was above 1 µM; in the data set on A375, above 1 µM. In the data set with U251, this compound had a half-inhibitory concentration (IC50) above 10 µM. In addition, the Kp in data set [1] (male, brain/plasma) came out at 0.96.
Regarding `OCC(O)CN1CCC(c2ccnc(Nc3ncc(-c4ccc(F)cc4)s3)c2)CC1` (stereo not drawn) [Example 034, 3-{2'-[5-(4-Fluoro-phenyl)-thiazol-2-ylamino]-3,4,5,6-tetrahydro-2H-[4,4']bipyridinyl-1-yl}-propane-1,2-diol], the IC50 on PDGFR-α is below 10 nM; against VEGFR-2 it was above 10 nM; against cKIT, below 10 nM; in the data set with A172, above 1 µM; with A2780, above 10 µM. Also, the Kp in data set [1] (male, brain/plasma) worked out at 1.79.
Consider `O=C(Nc1ccccc1Cl)c1cnc(Nc2cc(C3CCN(CCO)CC3)ccn2)s1` [Example 044, 2-[1'-{2-Hydroxy-ethyl)-1',2',3',4',5',6' -hexahydro-[4,4']bipyridinyl-2-ylamino]-thiazole-5-carboxylic acid (2-chlorophenyl)-amide], for which the IC50 on PDGFR-α was below 10 nM; on VEGFR-2 it was above 100 nM; at cKIT, above 10 nM; in the data set with A375 it was above 1 µM. For the same compound, the Kp in data set [1] (male, brain/plasma) stood at 0.19.
`CC(=O)N1CCCC(Cc2cccc(Nc3ncc(-c4ccc(F)cc4)s3)n2)CC1` (stereo not drawn) [Example 007, 1-(4-{6-[5-(4-Fluoro-phenyl)-thiazol-2-ylamino]-pyridin-2-ylmethyl}-azepan-1-yl)-ethanone]: the IC50 against PDGFR-α was above 10 nM; against VEGFR-2, above 100 nM; on cKIT, above 10 nM; in the data set with A172 it was above 1 µM; in the data set with A2780, above 1 µM; in the data set on A375, above 1 µM. This compound also came in with an IC50 with U251 above 1 µM.
